Reference: patent publication US8389739B1, “Modulators of retinoid-related orphan receptor gamma” (Orphagen Pharmaceuticals, priority 2006, dated 2013)
Read-outs that look alike come from different tables or passages of the source.

Key:
[1] = system: TH-17 cell differentiation from naïve CD4+ T cells; experiment: Differentiation of naïve CD4+ T cells, intracellular IL-17/IFN-γ staining by FACS (TH-17 protocol, TGFβ + IL-6); format: cell-based, mouse; conditions: Table 8, naïve CD4 cells, 5 days, mean ±SD
mRORγ = biological target: T1, mRORγ (Mus musculus, UniProt P51450); experiment: Transcriptional assay, Gal4-mRORγ with luciferase reporter in CHO cells; format: cell-based
T1 construct: expressed in transfected cells; host or cells: CHO cells, transient transfection
Description: The complete Gal4-mRORγ nucleotide sequence is shown below:
(§1) A firefly luciferase reporter gene for Gal4 DBD hybrid receptors, such as Gal4-RORγ, contains five copies of the Gal4 17-mer response element in its promoter and the coding sequence for firefly luciferase (pG5-luc, Promega). CHO (Chinese Hamster Ovary) cells were cultured in Ham's F12 medium supplemented with 10% fetal calf serum (Gemini Biologicals), 10 μg/ml penicillin and streptomycin, and were maintained in a humidified 37° C. incubator (Thermo Electron, Steri-Cycle) with 5% CO2. 24 hours before transfection, cells were plated in T175 flasks (5×10^6 cells/flask) or T75 flasks (1.7×10^6 cells/flask). Transient transfection of CHO cells was performed using TransIT-CHO reagents (Minis, Madison, Wis.) with a mixing ratio of 2:6:1 between plasmid DNA (in μg), TransIT-CHO (in μl) and CHO-mojo (in μl).
(§2) Plates are maintained at 37° C. in a humidified atmosphere with 7% CO2 overnight. Four (4) hours after cell seeding, compounds dissolved in DMSO at 10 mM were added to cells at final concentrations of 20 micromolar (μM) to 20 nanomolar (nM) in 0.2% DMSO in triplicate plates. Approximately 40 hours later, cytotoxicity in the assay well was characterized by addition of the dye resazurin (O'Brien, Wilson et al. 2000) to a final concentration of 3 μM. […] Percent viability was determined as 2 hour fluorescence, minus background at t=0 hours, normalized to DMSO controls. For detection of luciferase activity, media was removed from plates after the measurement of resazurin conversion, and SteadyLite luciferase reagent (Perkin-Elmer) was added (30 μl/well). Luminescence is detected with a Victor 2-V plate reader (Perkin-Elmer) and normalized to luciferase activity of DMSO control wells alone.

mRORγ LBD = biological target: T2, mRORγ LBD (Mus musculus, UniProt P51450); experiment: Biochemical assay, coregulatory peptide recruitment to GST-RORγ LBD (FRET)
T2 construct: made in house; host or cells: Sf9 insect cells, baculovirus; cleared lysate used directly
T2 sequence (P51450 251-516): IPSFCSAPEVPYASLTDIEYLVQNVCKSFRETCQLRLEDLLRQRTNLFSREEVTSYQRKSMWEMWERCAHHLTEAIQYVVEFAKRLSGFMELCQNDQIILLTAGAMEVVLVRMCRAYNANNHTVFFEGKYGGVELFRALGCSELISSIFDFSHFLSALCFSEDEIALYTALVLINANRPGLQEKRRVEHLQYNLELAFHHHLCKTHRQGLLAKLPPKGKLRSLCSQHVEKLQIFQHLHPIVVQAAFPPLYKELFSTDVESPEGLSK
From the text: GST-RORγ was generated by subcloning the RORγ-LBD into pET-41a, a vector which expresses GST fusion proteins in bacteria.
The cloning steps for GST-RORγ were as follows. The mRORγ LBD was excised from Gal4-mRORγ (see above for cloning steps) at BamHI and HindIII sites of Sequence 1 and cloned into the corresponding sites of pET-41a(+) (EMD Biosciences, San Diego, Calif.). A GST-mRORγ fragment was then excised from pET-41a(+) at XbaI and XhoI sites and cloned into a pcDNA3.1vector (Invitrogen, Carlsbad, Calif.) restricted at NheI and XhoI sites. Plasmid GST-mRORγ-pcDNA3.1 was used as a PCR template to generate a GST-mRORγ fragment that was later cloned into pENTR/D-TOPO vector (Invitrogen, Carlsbad, Calif.) by standard cloning techniques recommended by the manufacturer of the vector. The nucleotide sequence of GST-mRORγ is shown below:
For baculoviral expression of RORγ, the cDNA fragment of GST-RORγ— LBD, was subcloned from pET-41a into the pENTR/D-TOPO vector using a commercially-available kit (BaculoDirect, Invitrogen). Briefly, GST-RORγ carried by pENTR/D-TOPO was transfected into mono-layer Sf9 cells (8×10^5/well in 6-well plates) by Cellfectin (Invitrogen). Sf9 cells were incubated at 27° C. in a non-humidified incubator for 72 hours. Cell media was collected as P1 viral stock and used to further infect Sf9 cells to generate P2 and P3 virus. […] A plaque assay was performed to determine the titer of P3 virus and to isolate single plaques. P4 virus was generated from a single plaque and propagated on a larger scale.
Adherent SF9 cells were infected with baculovirus carrying GST-RORγ and were cultured for 72 hours. Sf9 cell were then subject to a brief sonication in a lysis buffer (20 mM phosphate, pH 6.8, 50 mM KCl, 50 mM NaCl, 0.5 mM EDTA, 50% glycerol, 0.001% NP-40 and 1 mM DTT) and centrifuged at 3000 rpm for 15 minutes. […] Cleared cell lysate was stored at −70° C. and is directly utilized in the coregulatory peptide recruitment assay.
The labeled probes anti-GST-APC and SA-RPE were purchased from Prozyme (San Leandro, Calif.). Compounds were added directly from a DMSO solution to a final concentration of 1-2% DMSO. Fluorescence was measured on a Wallac Victor 2 V plate reader equipped with a 670/40 nm filter (Omega Optical, Brattleboro, Vt.) for APC emission (Channel A) and a 600/25 bandpass filter for monitoring the RPE emission (Channel B).

human RORγ = biological target: T3, human RORγ (Homo sapiens, UniProt P51449); experiment: Transcriptional assay of human RORγ (Gal4-hRORγ); format: cell-based; conditions: Table 4B
T3 construct: expressed in transfected cells; host or cells: CHO cells, transient transfection
T3 sequence (P51449 253-518): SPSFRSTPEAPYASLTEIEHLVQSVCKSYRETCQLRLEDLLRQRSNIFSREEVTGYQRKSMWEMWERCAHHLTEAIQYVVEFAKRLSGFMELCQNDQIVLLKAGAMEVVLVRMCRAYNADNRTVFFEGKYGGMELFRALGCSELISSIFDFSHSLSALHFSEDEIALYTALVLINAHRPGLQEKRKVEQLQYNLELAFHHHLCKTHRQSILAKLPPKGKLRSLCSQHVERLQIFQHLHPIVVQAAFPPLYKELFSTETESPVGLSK
Description: The complete Gal4-hRORγ nucleotide sequence is shown below:
as §1, §2

[2] = biological target: T4, hPR (progesterone receptor) (Homo sapiens, UniProt P06401); experiment: Crossreactive receptor transcriptional assay (Gal4 hybrid); format: cell-based; conditions: activity of standard ligand at 20 μM
T4 construct: 687-933; expressed in transfected cells; host or cells: CHO cells, transient transfection
T4 sequence (P06401 687-933): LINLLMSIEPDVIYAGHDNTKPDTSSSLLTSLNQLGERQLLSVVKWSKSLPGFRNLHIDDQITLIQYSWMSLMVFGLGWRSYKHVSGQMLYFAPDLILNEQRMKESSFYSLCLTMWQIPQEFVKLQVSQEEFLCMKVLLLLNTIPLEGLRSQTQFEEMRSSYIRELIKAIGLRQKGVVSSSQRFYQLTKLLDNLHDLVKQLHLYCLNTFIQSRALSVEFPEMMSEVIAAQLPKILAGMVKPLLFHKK
Description: as §1, §2

[3] = biological target: T5, mLXRα (Liver X receptor alpha) (Mus musculus, UniProt Q9Z0Y9); experiment: Transcriptional assay of LXRα (Gal4-LXRα hybrid); format: cell-based; conditions: for specificity for RORγ versus LXRα: comparison of transcriptional assays for RORγ and LXRα (Table 7)
T5 construct: 172-455; expressed in transfected cells; host or cells: CHO cells, transient transfection
T5 sequence (Q9Z0Y9 172-445 limits assumed): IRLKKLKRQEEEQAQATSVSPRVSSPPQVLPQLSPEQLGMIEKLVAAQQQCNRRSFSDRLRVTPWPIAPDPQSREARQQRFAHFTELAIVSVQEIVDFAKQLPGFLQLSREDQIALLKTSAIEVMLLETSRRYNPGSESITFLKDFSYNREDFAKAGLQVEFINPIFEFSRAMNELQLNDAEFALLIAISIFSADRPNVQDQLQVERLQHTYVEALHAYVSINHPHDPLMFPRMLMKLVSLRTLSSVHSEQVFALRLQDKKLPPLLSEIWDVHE
Description: as §1, §2
A transcriptional assay for LXRα, using a Gal4-LXRα hybrid, was implemented in order to compare RORγ ligand potencies. In addition to LXRα, transcriptional assays for a number of other major nuclear receptors were developed.

hPPARα = biological target: T6, hPPARα (Homo sapiens, UniProt Q07869); experiment: Crossreactive receptor transcriptional assay (Gal4 hybrid); format: cell-based; conditions: activity of standard ligand at 20 μM
T6 construct: 166-468; expressed in transfected cells; host or cells: CHO cells, transient transfection
T6 sequence (Q07869 166-468): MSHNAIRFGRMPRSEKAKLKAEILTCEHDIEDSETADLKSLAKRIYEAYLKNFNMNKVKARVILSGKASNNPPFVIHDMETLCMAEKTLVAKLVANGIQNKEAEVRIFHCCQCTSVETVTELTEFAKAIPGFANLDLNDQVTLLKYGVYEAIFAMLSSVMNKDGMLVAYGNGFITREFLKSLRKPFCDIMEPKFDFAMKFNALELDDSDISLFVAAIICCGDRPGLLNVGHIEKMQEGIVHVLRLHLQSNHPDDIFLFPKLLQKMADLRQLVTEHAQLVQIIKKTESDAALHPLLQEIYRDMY
Description: as §1, §2

[4] = Table 4A, medians of two or more assays, unit inferred, read-out: EC50 Transcriptional
[5] = Table 4A, peptide K1, no agonist present, medians of two or more assays, unit inferred, read-out: EC50 Biochemical
[6] = Table 1, antagonists, inhibition of basal Gal4-mRORγ transcription in CHO cells, read-out: Assay EC50 in micromolar at mRORγ Transcriptional
[7] = Table 7, taken from Table 1, read-out: Assay EC50 in micromolar at mRORγ Transcriptional
[8] = Table 1, mRORγ and peptide K1, read-out: Assay EC50 in micromolar at mRORγ Biochemical
[9] = Table 7, taken from Table 1 (peptide K1), read-out: Assay EC50 in micromolar at mRORγ Biochemical
[10] = Table 7, no unit printed for this column (b114 gives 1.5 μM for OR-1050), read-out: Transcriptional Assay of LXRα EC50

T1 sequence (P51450 with tags, fused parts or gaps): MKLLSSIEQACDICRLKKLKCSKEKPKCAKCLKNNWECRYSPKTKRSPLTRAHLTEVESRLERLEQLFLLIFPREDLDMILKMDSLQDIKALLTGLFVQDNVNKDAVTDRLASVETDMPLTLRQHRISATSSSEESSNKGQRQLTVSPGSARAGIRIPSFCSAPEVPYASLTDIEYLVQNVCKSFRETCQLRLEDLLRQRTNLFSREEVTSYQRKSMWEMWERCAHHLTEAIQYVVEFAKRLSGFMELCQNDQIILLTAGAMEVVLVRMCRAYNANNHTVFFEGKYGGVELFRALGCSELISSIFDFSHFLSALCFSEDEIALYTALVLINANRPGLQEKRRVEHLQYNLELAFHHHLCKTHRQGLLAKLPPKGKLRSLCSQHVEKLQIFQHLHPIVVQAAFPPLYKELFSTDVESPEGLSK

Compound: IL-6: exogenous cytokine used for TH-17 differentiation
- IL-17 (%) ([1]; 20 ng/ml): 1.20 ± 0.04%

Compound: CCn1c(CNc2cccc(C(F)(F)F)c2)nnc1SCC(=O)Nc1cccc2ccccc12 [OR-133099, 2-{4-Ethyl-5-[(3-trifluoromethyl-phenylamino)-methyl]-4H-[1,2,4]triazol-3-ylsulfanyl}N-naphthalen-1-yl-acetamide]
- EC50 (mRORγ; [4]): 1.04 µM
- EC50 (mRORγ LBD; [5]): 1.33 µM
- EC50 (human RORγ): 2.4 µM

Compound: CCn1c(CNc2ccc(C)c(Cl)c2)nnc1SCC(=O)Nc1cccc2ccccc12 [OR-133171, 2-{5-[(3-Chloro-4-methyl-phenylamino)-methyl]-4-ethyl-4H-[1,2,4]triazol-3-ylsulfanyl}N-naphthalen-1-yl-acetamide]
- EC50 (mRORγ; [4]): 0.49 µM
- EC50 (mRORγ LBD; [5]): 0.44 µM
- EC50 (human RORγ): 1.7 µM

Compound: CCn1c(CNc2cccc(Cl)c2)nnc1SCC(=O)Nc1cccc2ccccc12 [OR-133097, 2-{5-[(3-Chloro-phenylamino)-methyl]-4-ethyl-4H-[1,2,4]triazol-3-ylsulfanyl}N-naphthalen-1-yl-acetamide]
- EC50 (mRORγ; [4]): 1.44 µM
- EC50 (mRORγ LBD; [5]): 1.34 µM
- EC50 (human RORγ): 5 µM

Compound: CC(=O)[C@H]1CC[C@H]2[C@@H]3CCC4=CC(=O)CC[C@]4(C)[C@H]3CC[C@]12C [Progesterone, progesterone, reference compound]
- Efficacy at hPR [2]: 6X

Compound: CCN(c1ccc(C(O)(C(F)(F)F)C(F)(F)F)cc1)S(=O)(=O)c1ccccc1 [OR-1031, N-Ethyl-N-[4-(2,2,2-trifluoro-1-hydroxy-1-trifluoromethyl-ethyl)-phenyl]-benzenesulfonamide]
- EC50 (mRORγ; Assay EC50 in micromolar at mRORγ Transcriptional, Table 1, antagonists, inhibition of basal Gal4-mRORγ transcription in CHO cells): 1.4 µM
- EC50 (mRORγ; Assay EC50 in micromolar at mRORγ Transcriptional, Table 7, taken from Table 1): 1.4 µM
- EC50 (mRORγ LBD): 3.5 µM
- EC50 [3]: 1400 nM
- Emax [3]: > 80%

Compound: CCN(c1ccc(C(O)(C(F)(F)F)C(F)(F)F)cc1)S(=O)(=O)c1ccc(Br)cc1 [OR-1048, 4-Bromo-N-ethyl-N-[4-(2,2,2-trifluoro-1-hydroxy-1-trifluoromethyl-ethyl)-phenyl]-benzene sulfonamide]
- EC50 (mRORγ; [6]): 0.12 µM
- EC50 (mRORγ; [7]): 0.12 µM
- EC50 (mRORγ LBD; [8]): 0.42 µM
- EC50 (mRORγ LBD; [9]): 0.42 µM
- Emax [3]: > 80%
- EC50 [3, 10]: 570 nM
- specificity for RORγ versus LXRα [3]: more specific for RORγ than LXRα

Compound: CCCCc1ccc(S(=O)(=O)N(CC)c2ccc(C(O)(C(F)(F)F)C(F)(F)F)cc2)cc1 [OR-1047, 4-Butyl-N-ethyl-N-[4-(2,2,2-trifluoro-1-hydroxy-1-trifluoromethyl-ethyl)-phenyl]-benzenesulfonamide]
- EC50 (mRORγ; [6]): 3.6 µM
- EC50 (mRORγ; [7]): 3.6 µM
- EC50 (mRORγ LBD; [8]): 5.8 µM
- EC50 (mRORγ LBD; [9]): 5.8 µM
- Emax [3]: < 5%
- EC50 [3, 10]: > 20000 nM
- specificity for RORγ versus LXRα [3]: more specific for RORγ than LXRα

Compound: TGFβ1: exogenous cytokine used for TH-17 differentiation
- IL-17 (%) ([1]; 4 ng/ml): 0.21 ± 0.02%

Compound: Cc1cccc(Nc2cc(Cl)nc(SCC(=O)O)n2)c1C [WY14643, reference compound]
- Efficacy at hPPARα (hPPARα): 6X

Compound: Cn1c(CNc2cccc(Cl)c2)nnc1SCC(=O)Nc1cccc2ccccc12 [OR-133167, 2-{5-[(3-Chloro-phenylamino)-methyl]-4-methyl-4H-[1,2,4]triazol-3-ylsulfanyl}N-naphthalen-1-yl-acetamide]
- EC50 (mRORγ; [4]): 3.3 µM
- EC50 (mRORγ LBD; [5]): 3.4 µM
- EC50 (human RORγ): 9.4 µM
